From the supplement of paper PMC10307832

Tests used:
Assay in all cases: relative viability (nuclei count vs DMSO), 5 days (fraction); higher = more cells survive
Avagacestat + Linsitinib = compound: NC(=O)[C@@H](CCC(F)(F)F)N(Cc1ccc(-c2ncon2)cc1F)S(=O)(=O)c1ccc(Cl)cc1 [Avagacestat] + C[C@]1(O)C[C@@H](c2nc(-c3ccc4ccc(-c5ccccc5)nc4c3)c3c(N)nccn32)C1 [Linsitinib] (partner 1 µM)
How it was run: (§1)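 Medians of duplicate plates are given as relative viability. That measure is the nuclei count in treated wells divided by the count in vehicle wells. Counts were taken on 4× images of lung cancer cell lines in 1536-well plates, 5 days after pin-tool dosing the day after seeding with one drug alone or a fixed anchor-drug dose plus five library-drug doses (not always all listed) in √10 steps.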

Avagacestat + Vorinostat = compound: NC(=O)[C@@H](CCC(F)(F)F)N(Cc1ccc(-c2ncon2)cc1F)S(=O)(=O)c1ccc(Cl)cc1 [Avagacestat] + O=C(CCCCCCC(=O)Nc1ccccc1)NO [Vorinostat] (partner 1 µM)
How it was run: as §1

Avagacestat + Pemetrexed = compound: NC(=O)[C@@H](CCC(F)(F)F)N(Cc1ccc(-c2ncon2)cc1F)S(=O)(=O)c1ccc(Cl)cc1 [Avagacestat] + Nc1nc2[nH]cc(CCc3ccc(C(=O)N[C@@H](CCC(=O)O)C(=O)O)cc3)c2c(=O)[nH]1 [Pemetrexed] (partner 0.2 µM)
How it was run: as §1

Avagacestat + Navitoclax = compound: NC(=O)[C@@H](CCC(F)(F)F)N(Cc1ccc(-c2ncon2)cc1F)S(=O)(=O)c1ccc(Cl)cc1 [Avagacestat] + CC1(C)CCC(c2ccc(Cl)cc2)=C(CN2CCN(c3ccc(C(=O)NS(=O)(=O)c4ccc(N[C@H](CCN5CCOCC5)CSc5ccccc5)c(S(=O)(=O)C(F)(F)F)c4)cc3)CC2)C1 [Navitoclax] (partner 0.5 µM)
How it was run: as §1

| Cell Line | relative viability (Avagacestat + Linsitinib; first compound 0.08 µM) | relative viability (Avagacestat + Linsitinib; first compound 0.253 µM) | relative viability (Avagacestat + Linsitinib; first compound 0.8 µM) | relative viability (Avagacestat + Linsitinib; first compound 2.53 µM) | relative viability (Avagacestat + Linsitinib; first compound 8 µM) | relative viability (Avagacestat + Vorinostat; first compound 0.08 µM) | relative viability (Avagacestat + Vorinostat; first compound 0.253 µM) | relative viability (Avagacestat + Vorinostat; first compound 0.8 µM) | relative viability (Avagacestat + Vorinostat; first compound 2.53 µM) | relative viability (Avagacestat + Vorinostat; first compound 8 µM) | relative viability (Avagacestat + Pemetrexed; first compound 0.08 µM) | relative viability (Avagacestat + Pemetrexed; first compound 0.253 µM) | relative viability (Avagacestat + Pemetrexed; first compound 0.8 µM) | relative viability (Avagacestat + Pemetrexed; first compound 2.53 µM) | relative viability (Avagacestat + Pemetrexed; first compound 8 µM) | relative viability (Avagacestat + Navitoclax; first compound 0.08 µM) | relative viability (Avagacestat + Navitoclax; first compound 0.253 µM) | relative viability (Avagacestat + Navitoclax; first compound 0.8 µM) | relative viability (Avagacestat + Navitoclax; first compound 2.53 µM) | relative viability (Avagacestat + Navitoclax; first compound 8 µM) |
| --- | --- | --- | --- | --- | --- | --- | --- | --- | --- | --- | --- | --- | --- | --- | --- | --- | --- | --- | --- | --- |
| 201T | 1.02 | 1.07 | 1.13 | 0.985 | 0.99 | 1.01 | 1.03 | 0.925 | 0.857 | 0.86 | 0.314 | 0.352 | 0.351 | 0.301 | 0.335 | 1.19 | 1.21 | 1.25 | 1.19 | 1.18 |
| A-427 | 1.11 | 1.24 | 1.16 | 1.15 | 1.22 | 0.958 | 0.945 | 1.03 | 0.946 | 0.952 | 1.07 | 1.09 | 1.22 | 1.04 | 1.07 | 0.994 | 0.99 | 1.03 | 0.967 | 0.968 |
| ABC-1 | 0.979 | 1.06 | 0.866 | 0.786 | 0.737 | 1.22 | 1.14 | 1.71 | 1.15 | 1.02 | – | – | – | – | – | – | – | – | – | – |
| BEN | 0.898 | 1.07 | 1.02 | 0.76 | 0.847 | 0.589 | 0.653 | 0.579 | 0.526 | 0.588 | 0.879 | 0.897 | 0.851 | 0.904 | 0.807 | 0.0581 | 0.0757 | 0.141 | 0.061 | 0.0756 |
| CAL-12T | 0.94 | 0.865 | 0.931 | 0.768 | 0.693 | 0.918 | 1.1 | 0.796 | 0.729 | 0.798 | 1.7 | 1.49 | 1.67 | 1.42 | 1.25 | 1.52 | 1.44 | 1.3 | 1.32 | 1.22 |
| COR-L23 | 1.21 | 0.896 | 0.869 | 0.764 | 0.573 | 0.474 | 0.457 | 0.484 | 0.366 | 0.332 | 0.178 | 0.197 | 0.207 | 0.214 | 0.201 | 1.57 | 1.31 | 1.04 | 1 | 0.814 |
| COR-L 105 | 0.99 | 0.972 | 0.59 | 0.964 | 0.755 | 1.08 | 0.891 | 0.87 | 0.792 | 0.884 | 1.2 | 1.21 | 1.12 | 0.983 | 1.02 | 0.851 | 0.604 | 0.779 | 0.595 | 0.648 |
| Calu-6 | 1.05 | 1.04 | 1.07 | 1.03 | 0.784 | – | – | – | – | – | – | – | – | – | – | 1.07 | 0.99 | 0.922 | 1.06 | 0.81 |
| ChaGo-K-1 | – | – | – | – | – | 0.783 | 0.874 | 0.79 | 0.755 | 0.692 | 0.275 | 0.271 | 0.265 | 0.266 | 0.267 | 0.987 | 0.926 | 1.32 | 1.24 | 1.17 |
| EKVX | 1.22 | 0.996 | 1.25 | 0.847 | 0.703 | 0.826 | 0.783 | 0.904 | 0.75 | 0.68 | 0.5 | 0.462 | 0.529 | 0.439 | 0.373 | 1.12 | 1.15 | 1.04 | 0.792 | 0.853 |
| EMC-BAC-2 | 0.882 | 0.953 | 0.84 | 0.738 | 0.784 | 0.662 | 0.581 | 0.803 | 0.535 | 0.51 | 0.52 | 0.595 | 0.634 | 0.557 | 0.544 | 1.46 | 1.54 | 1.38 | 1.1 | 1.17 |
| EPLC-272H | 1.4 | 1.2 | 1.4 | 1.32 | 0.933 | 0.413 | 0.318 | 0.539 | 0.367 | 0.321 | 0.322 | 0.429 | 0.318 | 0.31 | 0.267 | 1.51 | 1.13 | 1.32 | 1.21 | 0.964 |
| H3255 | 1.02 | 1.17 | 0.975 | 0.899 | 0.898 | 0.825 | 0.89 | 1.03 | 0.861 | 0.7 | 0.57 | 0.622 | 0.591 | 0.552 | 0.557 | 0.504 | 0.59 | 0.71 | 0.431 | 0.498 |
| HARA | 1.29 | 1.28 | 1.01 | 0.79 | 0.907 | 0.572 | 0.551 | 0.524 | 0.716 | 0.549 | 0.227 | 0.203 | 0.226 | 0.257 | 0.244 | 1.39 | 1.27 | 1.23 | 1.17 | 1.2 |
| HCC-15 | 0.985 | 0.998 | 0.874 | 0.936 | 0.755 | 0.976 | 1.03 | 0.979 | 0.796 | 0.818 | 0.227 | 0.22 | 0.232 | 0.212 | 0.194 | 0.87 | 0.806 | 0.799 | 0.732 | 0.591 |
| HCC-44 | 0.703 | 0.709 | 0.681 | 0.504 | 0.598 | 1.09 | 1.14 | 1.19 | 1.07 | 1.21 | 0.733 | 0.68 | 0.706 | 0.66 | 0.639 | 1.14 | 1.13 | 0.948 | 0.76 | 0.874 |
| HCC-78 | 0.568 | 0.54 | 0.706 | 0.396 | 0.406 | 0.499 | 0.458 | 0.416 | 0.391 | 0.351 | 0.901 | 0.976 | 0.933 | 0.883 | 0.851 | 0.884 | 0.818 | 0.791 | 0.665 | 0.68 |
